Patent US11319292B2, “Metabolically stable 5-HMF derivatives for the treatment of hypoxia” (King Abdulaziz University, priority 2020, dated 2022)

Tests used:
Hb [1] = target: T1, Hb (Homo sapiens, UniProt P68871+P69905); experiment: In vitro time-dependent Hb oxygen equilibrium study using normal whole blood; assay type: in vitro ADME; conditions: 2 mM; normal whole blood 30% hct; 37° C.; 1, 4 and 24 hr
T1 construct: Normal whole blood was collected from adult donors; from tissue; host or cells: normal whole blood of adult donors
Protocol: Materials and General Procedure: Normal whole blood was collected from adult donors at the Virginia Commonwealth University after informed consent, in accordance with regulations of the IRB for Protection of Human.
Experimental procedure: MMA-409 and the control 5-HMF were used to conduct time-dependent studies on Hb oxygen oxygen equilibrium using normal whole blood. The study was performed in a 96-well deep well (Thermo Scientific) plate, where each compound at 2 mM concentration was added to 600 μL of whole blood (30% hct) and incubated at 37° C. for 24 hr with shaking (at 140 rpm). Additionally, DMSO (1%) alone was also tested as a negative control. At 1, 4 and 24 hr time intervals, 75 μL aliquot of blood was removed from each well using a multichannel pipette and the reaction stopped by freezing at −80° C. until ready for hemoximetry analysis using Hemox™ Analyzer (TCS Scientific Corp.) to assess P50 shifts.^32 The observed P50 shifts values in % P50 shifts were plotted as function of time [hrs].

intact SS cells = experiment: Inhibition of hypoxia-induced RBC sickling (RBC morphology study) in homozygous SS blood; assay type: cell-based, human; conditions: SS blood hematocrit 20%, 2.5% oxygen, 37° C., 2 hr
Description: (§1) Materials and General Procedure: Leftover blood samples from patients with homozygous SS were obtained and utilized, based on an approved IRB protocol at the Children's Hospital of Philadelphia, with informed consent.
(§2) Experimental Procedure: The MMA series of compounds (MMA-301, MMA-304, MMA-205, MMA-401, MMA-402, MMA-403, MMA-405, MMA-406, MMA-407, MMA-408, MMA-409 and MMA-410) and the positive controls vanillin and 5-HMF were studied for their abilities to inhibit hypoxia-induced RBC sickling (RBC morphology study), increase Hb oxygen, and/or modify Hb (adduct formation) as previously published.^31,33 Briefly, homozygous SS blood (hematocrit: 20%) suspensions were incubated under air in the absence or presence of 2 and/or 5 mM concentration of test compounds at 37° C. for 1 hr. Following, the suspensions were incubated under hypoxic condition (2.5% oxygen) at 37° C. for 2 hr. Aliquot samples were fixed with 2% glutaraldehyde solution without exposure to air, and then subjected to microscopic morphological analysis. The residual samples were washed in phosphate-buffered saline, and hemolyzed in hypotonic lysis buffer for the Hb oxygen equilibrium and Hb adduct experiments. For the Hb oxygen equilibrium study, approximately 100 μl aliquot samples from the lysate were added to 4 ml of 0.1M potassium phosphate buffer, pH 7.0, in a cuvette and subjected to hemoximetry analysis using Hemox™ Analyzer (TCS Scientific Corp.) to assess P50 shifts. Another aliquot from the lysate was also subjected to Hb adduct formation study using cation-exchange HPLC (Hitachi D-7000 Series, Hitachi Instruments, Inc., San Jose, Calif.) with a weak cation-exchange column (Poly CAT A: 30 mm×4.6 mm, Poly LC, Inc., Columbia, Md.). To determine the binding of the MMA compounds to either α- or β-globin chains, the hemolysates were subjected to reversed-phase (RP) HPLC on a Hitachi D-7000 HSM Series, using a Jupiter 5 μm C-4 50×4.6 mm column, (Phenomenex®, Torrence, Calif.) and a gradient from 20% to 60% acetonitrile in 0.3% trifluoroacetic acid in 15 minutes, with UV detection at 215 nm.

Hb [2] = target: T2, Hb (Homo sapiens, UniProt P68871+P69905, E7V); experiment: Hb oxygen equilibrium study (P50 shift, Hemox Analyzer) on lysate of compound-treated SS cells; assay type: cell-based; conditions: intact SS cells; for activation at 2000 µM: 2 mM compound; for activation at 2000 µM / activation at 5000 µM: read-out: increase in Hb oxygen affinity (ΔP50); for activation at 5000 µM: 5 mM compound; for effect on Hb affinity for oxygen: 2 mM and/or 5 mM
T2 construct: Leftover blood samples from patients with homozygous SS were obtained and utilized; from tissue; host or cells: blood (red cells, then hemolysate) of patients with homozygous SS
Description: as §1, §2

βCys93 of Hb = βCys93 of Hb (Homo sapiens, UniProt P68871); experiment: Reactivity toward βCys93 of Hb (DTNB disulfide exchange, absorbance at 412 nm); assay type: biochemical; conditions: 2 mM compound, Hb 50 μM, four hours at 25° C.
Protocol: Experimental Procedure: Aqueous solution of Hb (50 μM) was mixed with MMA 409 or MMA 410 (2 mM). Additionally, Hb was mixed with phosphate buffered saline (PBS) to serve as a negative control. […] Ethacrynic acid, which is known to bind to the thiols of hemoglobin and thus limits the reaction between DTNB (5,5′-dithiobis-(2-nitrobenzoic acid) and βCys93, was studied as a positive control.^42 The mixtures were incubated for four hours at 25° C., and then centrifuged with washing to separate excess reagents from the Hb. The washed hemoglobin was stored overnight at 4° C. After, 5 μL of 100 mM DTNB was added to 25 μL of each Hb solution, and these solutions were each diluted to 500 μL in 0.1 M phosphate buffer and were incubated for an hour. Another 25 μL of each Hb solution was diluted to 500 μL in buffer to serve as a non-DTNB control. The tubes containing these solutions were centrifuged, and the collected yellow filtrate was quantified by measuring absorbance at 412 nm using a spectrophotometer as previously described.^42

Hb [3] = target: T2, Hb; experiment: Hb adduct formation study by cation-exchange HPLC after incubation with intact SS cells; assay type: cell-based; conditions: 2 mM and/or 5 mM
Description: as §1
(§3) Experimental Procedure: The MMA series of compounds (MMA-301, MMA-304, MMA-205, MMA-401, MMA-402, MMA-403, MMA-405, MMA-406, MMA-407, MMA-408, MMA-409 and MMA-410) and the positive controls vanillin and 5-HMF were studied for their abilities to inhibit hypoxia-induced RBC sickling (RBC morphology study), increase Hb oxygen, and/or modify Hb (adduct formation) as previously published.^31,33 Briefly, homozygous SS blood (hematocrit: 20%) suspensions were incubated under air in the absence or presence of 2 and/or 5 mM concentration of test compounds at 37° C. for 1 hr. Following, the suspensions were incubated under hypoxic condition (2.5% oxygen) at 37° C. for 2 hr. Aliquot samples were fixed with 2% glutaraldehyde solution without exposure to air, and then subjected to microscopic morphological analysis. The residual samples were washed in phosphate-buffered saline, and hemolyzed in hypotonic lysis buffer for the Hb oxygen equilibrium and Hb adduct experiments. […]

α- or β-globin chains = target: T3, α- or β-globin chains (Homo sapiens, UniProt P68871+P69905, E7V); experiment: Reversed-phase HPLC of hemolysates for binding to α- or β-globin chains; assay type: cell-based; conditions: 2 mM and 5 mM; intact SS cells; reverse-phase HPLC
T3 construct: Leftover blood samples from patients with homozygous SS were obtained and utilized; from tissue; host or cells: blood (red cells, then hemolysate) of patients with homozygous SS
Description: as §1, §3

[4] = in-vivo; aldehyde protected by L-cysteine; cited from earlier work

O=Cc1ccc(CO)o1 [5-HMF, 5-Hydroxymethylfurfural]
time course of biological activity (P50 shift) over 24 hr (Hb [1]): declined rapidly | RBC sickling (reduced to) (intact SS cells; 2 mM compound): 50% | RBC sickling (reduced to) (intact SS cells; 5 mM compound): 14% | activation at 2000 µM (Hb [2]): 33%

CC(=O)/C=C/c1ncc[nH]1 [MMA-301, (E)-4-(1H-imidazol-2-yl)but-3-en-2-one]
activation at 2000 µM (Hb [2]): 12.7% | activation at 5000 µM (Hb [2]): 18.2%

NC(=O)C(=O)c1ncc[nH]1 [MMA-304]
activation at 2000 µM (Hb [2]): 16.5% | activation at 5000 µM (Hb [2]): 22.1%

O=C(O)/C=C/c1ccc(CO)o1 [MMA-401, (E)-3-(5-(hydroxymethyl)furan-2-yl)acrylic acid]
melting point: 138 °C

NC(=O)/C=C/c1ccc(CO)o1 [MMA-403, (E)-3-(5-(hydroxymethyl)furan-2-yl)acrylamide]
melting point: 131 to 156 °C

CC(=O)/C=C/c1ccc(CO)o1 [MMA-404, (E)-4-(5-(hydroxymethyl)furan-2-yl)but-3-en-2-one]
melting point: 20 °C

COCc1ccc(C(=O)C(F)(F)F)o1 [MMA-405, 2,2,2-trifluoro-1-(5-(methoxymethyl)furan-2-yl)ethan-1-one]
effect on Hb affinity for oxygen (Hb [2]): no effect

COC(=O)/C=C/c1ccc(CO)o1 [MMA-406, methyl (E)-3-(5-(hydroxymethyl)furan-2-yl)acrylate]
melting point: 66 °C | effect on Hb affinity for oxygen (Hb [2]): no effect

C=CC(=O)c1ccc(COc2ccccc2)o1 [MMA-409]
time course of biological activity (P50 shift) over 24 hr (Hb [1]): sustained throughout the 24 hr experiment | RBC sickling (reduced to) (intact SS cells; 2 mM compound): 49% | RBC sickling (reduced to) (intact SS cells; 5 mM compound): 18% | % free thiols of βCys93 (βCys93 of Hb): 46% | Hb modification (adduct formation) (Hb [3]): significant Hb modification | adduct formation with globin chain (α- or β-globin chains): exclusive adduct formation with the β-chain | activation at 2000 µM (Hb [2]): 22% | activation at 5000 µM (Hb [2]): 52%

C#CC(=O)c1ccc(COc2ccccc2)o1 [MMA-410]
% free thiols of βCys93 (βCys93 of Hb): 54%

C=C(CC)C(=O)c1ccc(OCC(=O)O)c(Cl)c1Cl [ethacrynic acid, Ethacrynic acid, reference compound]
% free thiols of βCys93 (βCys93 of Hb): 54%

O=C(O)C1CSC(c2ccc(CO)o2)N1 (centres unmarked) [thiazolidine complex of 5-HMF]
extension of 5-HMF half-life [4]: 2 fold

COc1cc(C=O)ccc1O [vanillin, reference compound]
RBC sickling (reduced to) (intact SS cells; 2 mM compound): 57% | RBC sickling (reduced to) (intact SS cells; 5 mM compound): 36% | activation at 2000 µM (Hb [2]): 12% | activation at 5000 µM (Hb [2]): 27%
